Experimental data: publication PMC12195740, “Discovery of Novel Imidazothiazole-Based Hydroxamic Acid Derivatives as Potent Indoleamine 2,3-Dioxygenase 1 and Histone Deacetylase 6 Dual Inhibitors” (Molecules, 2025)

Test system: HCT-116 cells
Experiment: Cell cycle analysis (PI, flow cytometry)
Assay type: cell-based
Conditions: 24 h, control 7.77%
Method: To assess the impact of compound 10e on the cell cycle, HCT-116 cells were treated with different concentrations of compound 10e (5 μM, 10 μM, and 20 μM) for 24 h, then stained with PI, and analyzed using flow cytometry.
Cell Bank at the Chinese Academy of Sciences. Hct-116, SW480, MDA-MB-231 and MCF-7 cell […]
FBS. DMEM and FBS were obtained from Gibco-Thermo (BRL Co. Ltd., USA). The plates were incubated at 37 °C in a humidified atmosphere of 5% CO2/95% air overnight. The cells were then […]
another 48 h. The cells were stained with 10 μl of MTT at incubator for approximately 4 h. The medium was discarded and replaced by […] DMSO. The O.D. value was read at 570/630 nm with a spectrophotometer.
Section S 1.4 Molecular docking
Molecular docking was carried out in Sybyl-X 2.1 on a Windows workstation. The crystal structure of IDO1 protein with inhibitor was retrieved from the RCSB Protein Data Bank (IDO1:
4PK5, HDAC6: 6THV). Firstly, the 3D structure of the selected compound was built with Sybyl-X 2.1 sketch followed by energy minimization with the MMFF94 force field and Gasteiger-Marsili charges. The Powell’s method was used to optimize the geometry with a distance dependent dielectric constant and a termination energy gradient of 0.005 kcal/mol. […]
with 75% cold ethanol at 4 °C overnight. […] The samples were measured using flow cytometry and analyzed by Flowjo software. […]
Total cell lysates from cultured HCT-116 cells after treatment with compound 10e as mentioned earlier were obtained by lysing the cells in ice-cold RIPA buffer with protease and phosphatase inhibitor and stored at -20°C for future use. The protein concentrations were quantified by the Bradford method (Bio-Rad) using a Multimode Varioscan instrument (Thermo Fischer Scientific).
Equal amounts of protein per lane were applied to 12% SDS polyacrylamide gel for electrophoresis and transferred to a polyvinylidene difluoride (PVDF) membrane (Amersham Biosciences). […] Membranes were washed with TBST three times for 15 min and the protein bands were detected with chemiluminescence reagent (Thermo Fischer Scientific). […]

O=C(CCCCCCNc1ccc(NC(=O)c2cnc3scc(-c4ccc(Br)cc4)n23)cc1)NO [Compound 10e, 3-(4-Bromophenyl)-N-{4-[(7-(hydroxyamino)-7-oxoheptyl)amino]phenyl}imidazo[2,1-b]thiazole-5-carboxamide]
cell population in G2/M phase (HCT-116, 5 μM): 17.39%
cell population in G2/M phase (HCT-116, 10 μM): 31.89%
cell population in G2/M phase (HCT-116, 20 μM): 47.18%
